Entries after “also recorded” stand apart in the source; their conditions may differ.
Assays:
Type in all cases: in vivo, human
[1] = test system: healthy elderly subjects with a mild memory complaint; assay: CANTAB Paired Associate Learning (PAL) test, randomized double-blind placebo-controlled 24 week study
Experimental: (§1) The effects of DHA (about 900 mg/day) versus placebo was tested to determine whether cognitive measures of memory, attention, and executive function were improved, utilizing the Cambridge Neuropsychological Test Automated Battery (CANTAB) cognitive battery, in healthy elderly subjects with a mild memory complaint. One objective of the study was to determine the effect of DHA administration versus placebo on improving cognitive functions (i.e., working memory, memory retention, attention, processing speed, and executive function) in healthy elderly with a subjective memory complaint. Another objective of the study included determining the effects of DHA on visual acuity, levels of plasma phospholipids, and evaluating the safety and tolerability of the DHA dose administered.
The study was a randomized, double-blind, placebo-controlled, parallel, multi-center design study to evaluate the effects of an oral dose of DHA on cognitive functions in healthy elderly with a subjective memory complaint. The study consisted of a screening/baseline period, and a 24 week treatment period.
(§2) The DHA group was provided 800 mg soft-gelatin capsules, each containing about 300 mg DHA as a triglyceride from algal oil (DHASCO®-S oil, 40% DHA). In addition to 40% DHA, DHASCO®-S oil was formulated to contain 40-60% saturated, mono- and polyunsaturated fatty acids, 400 ppm ascorbyl palmitate, 2000 ppm mixed tocopherols, 2000 ppm rosemary extract, 3% orange-flavoring, and 1% natural masking agent. Subjects were instructed to take three 800 mg capsules/day, i.e., about 900 mg DHA/day.
Pre-baseline testing with the CANTAB occurred to serve as a training session and to familiarize the subject with the computer system. Morris R, et al., Computer Aided Assessment of Dementia: Comparative Studies of Neuropsychological Deficits in Alzheimer Type Dementia and Parkinson's Disease (1987). Seven (+/−2) days following this pre-baseline testing, baseline measurements were taken, including baseline laboratory measures, vital signs, and the CANTAB cognitive battery. At the baseline session, subjects were stratified based on age (55-69; ≧70) and randomly assigned to receive about 900 mg DHA, or placebo. Capsules, either DHA or placebo, as randomly assigned, was given to each subject at the end of the baseline visit. Subjects were instructed to take 3 capsules everyday for the ensuing 24 weeks and were supplied initially with 3 months' worth of capsules. At the end of 4 weeks, subjects returned to the site for compliance and safety assessments. Subjects returned to the site at 12 weeks for safety and efficacy assessments and were re-supplied with the final 3 months' worth of capsules. Subjects returned to the site at 24 weeks for the “end of study” efficacy and safety assessments. Compliance was assessed by food frequency questionnaires, returned capsule counts, and by plasma DHA levels (taken at 24 weeks). The CANTAB cognitive battery consists of tests of memory, learning, attention, problem-solving, and executive function (i.e., planning and organizational skills). See e.g., Fowler et al., Applied Neuropsychology 2:72-78 (1995); Robbins et al., Dementia 5:266-281 (1994); and De Luca et al., J Clinical and Experimental Neuropsychology 25:242-254 (2003).
A primary efficacy endpoint of the CANTAB test score on the Paired Associate Learning (PAL) test at 24 weeks of treatment was used as the primary efficacy outcome. The primary analysis was adjusted for baseline scores, education, site, and the stratification factor of age. Secondary analyses were based on the model above with the addition of the factor, concomitant statin medication use. The PAL subtest of the CANTAB is a test of visuospatial cued recall memory that detects changes in episodic memory. See e.g., de Jager et al., Psychological Medicine 32:483-491 (2002). […]

[2] = test system: healthy elderly subjects with a mild memory complaint; assay: CANTAB Verbal Recognition Memory (VRM) test
Experimental: as §1, §2
(§3) The secondary efficacy endpoints included: • CANTAB tests of executive function and planning: Spatial Working Memory […] and Stockings of Cambridge (SOC) • CANTAB Verbal Recognition Memory test (VRM) • CANTAB Pattern Recognition test (PRM) • Visual acuity (measured by Snellen Eye chart; corrected vision) • Memory Functioning Questionnaire: Frequency of Forgetting-10 (Self-rating scale) • Activities of Daily Living (ADCS-ADL PI) scale (Self-rating) • Clinical measures of cognitive function and computerized assessments were administered by (CANTAB) certified examiners at each site blinded to the subject's treatment. • Description of CANTAB Battery of tests
Additional tests are included in CANTABeclipse and are available in the CANTABelect batteries. […]

[3] = test system: healthy elderly subjects with a mild memory complaint; assay: CANTAB Pattern Recognition Memory (PRM) test; conditions: about 900 mg/d, 24 weeks
Experimental: as §1, with “Another objective of the study included determining the effects of DHA on visual acuity, levels of plasma phospholipids, and evaluating the safety and tolerability of the DHA dose administered.” left out
as §3, with “of tests […]” for “of tests”

[4] = test system: healthy elderly subjects with a mild memory complaint; assay: CANTAB Spatial Working Memory (SWM) test; conditions: about 900 mg/d, 24 weeks
Experimental: as §1, with “Another objective of the study included determining the effects of DHA on visual acuity, levels of plasma phospholipids, and evaluating the safety and tolerability of the DHA dose administered.” left out
as §3, with “of tests […]” for “of tests”

[5] = test system: healthy elderly subjects with a mild memory complaint; assay: CANTAB Stockings of Cambridge (SOC) test; conditions: about 900 mg/d, 24 weeks
Experimental: as §1, with “Another objective of the study included determining the effects of DHA on visual acuity, levels of plasma phospholipids, and evaluating the safety and tolerability of the DHA dose administered.” left out
as §3, with “of tests […]” for “of tests”

[6] = Vital signs (heart rate, blood pressure, body weight); conditions: about 900 mg/d, 24 weeks
Experimental: as §1, §2
(§4) Pre-baseline testing with the CANTAB occurred to serve as a training session and to familiarize the subject with the computer system. Morris R, et al., Computer Aided Assessment of Dementia: Comparative Studies of Neuropsychological Deficits in Alzheimer Type Dementia and Parkinson's Disease (1987). Seven (+/−2) days following this pre-baseline testing, baseline measurements were taken, including baseline laboratory measures, vital signs, and the CANTAB cognitive battery. At the baseline session, subjects were stratified based on age (55-69; ≧70) and randomly assigned to receive about 900 mg DHA, or placebo. […] Compliance was assessed by food frequency questionnaires, returned capsule counts, and by plasma DHA levels (taken at 24 weeks). […]

[7] = Plasma phospholipid fatty acid levels
Experimental: as §2
Blood samples of the subjects were collected at baseline and at the week 24 or “end of study” visit to determine phospholipid levels. Samples were collected into 10 ml vacutainer EDTA tubes, centrifuged at 3000 rpm and plasma was stored at −80° C. until analyzed. Plasma phospholipid fatty acids were analyzed as described previously. See, e.g., Arterburn, L. M., et al., Lipids 42:1011-1024 (2007). The fatty acid profiles were expressed as a percent of the total […] of fatty acid (weight percent).

[8] = test system: healthy elderly subjects with a mild memory complaint; assay: Safety and tolerability of the DHA dose
Experimental: as §1
as §4, with “battery.” for “battery. At the baseline session, subjects were stratified based on age (55-69; ≧70) and randomly assigned to receive about 900 mg DHA, or placebo.”

[9] = test system: healthy elderly subjects with a mild memory complaint; assay: Mini-Mental State Examination (MMSE); conditions: 6 month study, not different between groups
From the text: (§5) During the Screening Period, subjects were selected on the basis of specific inclusion and exclusion criteria, including a screening Logical Memory sub-test of the Wechsler Memory Scale (WMS III). See e.g., Wechsler, D., Administration and Scoring Manual, 3rd ed. San Antonio, Tex.: Harcourt Brace & Company, 1997. In addition to the Logical Memory sub-test, the Mini-Mental State Examination (MMSE), Geriatric Depression scale, and a test of visual acuity and a DHA Food Frequency Questionnaire were administered to all subjects at screening. See e.g., Folstein et al., Pyschiatr. Res. 12:189-198 (1975); Yesavage J., et al., J Psychiatr. Res. […] (1982). Eligible subjects who meet the screening criteria were given a pre-baseline training session with the computerized cognitive battery, CANTAB.
(§6) Other secondary measures included self-assessment tests of memory (Frequency of Forgetting-10 scale) (Zelinski, E. M. et al., Aging and Mental Health […]), Alzheimer's Disease Cooperative Study-Activities of Daily Living Prevention Instrument (ADCS-ADL PI scale) (Galasko, D., Alzheimer Dis. Assoc. Disord. 20:S152-69 (200)), Mini-Mental State Examination (MMSE) (Folstein et al., Pyschiatr. Res. 12:189-198 (1975) and the Geriatric Depression Scale (Yesavage, J., et al., J Psychiatr. Res. […]).

[10] = test system: healthy elderly subjects with a mild memory complaint; assay: Geriatric Depression Scale; conditions: 6 month study, not different between groups
From the text: as §5, §6

[11] = test system: healthy elderly subjects with a mild memory complaint; assay: ADL (ADCS-ADL PI) and self-assessment of memory (Frequency of Forgetting-10); conditions: 6 month study
From the text: as §3, §6

plasma phospholipid DHA change, diff. score versus placebo ([7]; 24 weeks, p<0.001): 3.15±0.16 | plasma phospholipid DPAn-6, mean change ([7]; 24 weeks, placebo −0.004, p<0.001): 0.37 weight % | plasma phospholipid EPA, mean change ([7]; 24 weeks, placebo −0.06, p<0.001): 0.16 weight % | plasma phospholipid arachidonic acid (ARA), mean change from baseline ([7]; 24 weeks, placebo −0.12, p<0.001): −1.37 weight % | plasma phospholipid ARA levels, decrease ([7]; about 900 mg/day, six months): 1.4 weight % | plasma phospholipid DHA, increase from baseline ([7]; week 24, about 900 mg/day, placebo −0.08): 3.2 weight % | plasma phospholipid DHA level after treatment ([7]; week 24, baseline 3.2 weight %, p<0.001): 6.4 weight %
SMILES: CC/C=C\C/C=C\C/C=C\C/C=C\C/C=C\C/C=C\CCC(=O)O [DHA, (all-Z)-4,7,10,13,16,19-docosahexaenoic acid]
errors made on the PAL 6 pattern stage test, diff. score versus placebo, change from baseline ([1]; about 900 mg/d DHA, six months, ITT analysis, p<0.03): −1.63±0.76 | PAL primary endpoint, diff. score versus placebo, compliers analysis ([1]; about 900 mg/d, week 24, 95% CI −3.1, 0.4, p<0.13, not significant): −1.3±0.89 | improvement in PAL test performance compared to age-associated normative data ([1]; about 900 mg/day, 6 months, placebo 3.6 year): 7 year | reduction in CANTAB PAL 6 pattern errors compared to the decrease with placebo ([1]; about 900 mg/day, six months): ~2 fold | mean PAL errors after 6 months of DHA supplementation ([1]; baseline 13.4±11.5): 8.8±9.9 | normative age corresponding to mean PAL errors after 6 months ([1]; baseline 72.6 years): 65.6 years of age | VRM delayed recognition, change from baseline correct responses, diff. versus placebo ([2]; about 900 mg/d, p<0.02): 0.4±0.18 | VRM immediate recognition, change from baseline correct responses, diff. versus placebo ([2]; about 900 mg/d, p<0.02): 0.4±0.17 | CANTAB Verbal recognition memory, effect of DHA supplementation ([2]; about 900 mg/day, 6 months): modestly improved | CANTAB Pattern Recognition test responses, DHA versus placebo [3]: not significantly different | Spatial Working Memory (SWM) test responses, DHA versus placebo [4]: not significantly different; also recorded: not found | changes in executive function (SOC) [5]: not found | blood pressure, DHA versus placebo [6]: remained unchanged | body weight, DHA versus placebo [6]: remained unchanged | heart rate, change from baseline ([6]; placebo −1 BPM, p<0.03): −3.2 BPM | treatment-related SAEs ([8]; about 900 mg/d, 24 weeks): no treatment-related SAEs were reported | tolerability ([8]; about 900 mg/day algal DHA, six months): well tolerated | MMSE, global cognitive function [9]: unchanged | Geriatric Depression scale [10]: unchanged | ADL assessment [11]: unaffected by DHA supplementation | self-perceptive memory assessment [11]: unaffected by DHA supplementation

— US20100203123A1, “METHODS FOR IMPROVING COGNITIVE FUNCTION AND DECREASING HEART RATE” (MARTEK BIOSCIENCES CORPORATION, priority 2009, published 2010)
